One may read the Ki as the equilibrium dissociation constant of an inhibitor or competing ligand from its target. One may read the IC50 as the midpoint of a concentration-inhibition curve. Low values mean higher potency, high ones lower potency. One may read the AUC as concentration integrated over time.

Consider 12 compounds from ChEMBL document CHEMBL6087427, “Discovery of novel cyclopentane carboxylic acids as potent and selective inhibitors of NaV1.7” (Bioorg Med Chem Lett, 2025).

Data set [1] has as its target T1, Sodium channel protein type 9 subunit alpha (Homo sapiens, UniProt Q15858). As to the kind of experiment: Displacement of [3H]GX-545 from Nav1.7 VSD4 (unknown origin). (Loss of bound radioactivity is the signal in a displacement assay; it reports binding, not function.)
Target sequence in this assay (Q15858 whole entry): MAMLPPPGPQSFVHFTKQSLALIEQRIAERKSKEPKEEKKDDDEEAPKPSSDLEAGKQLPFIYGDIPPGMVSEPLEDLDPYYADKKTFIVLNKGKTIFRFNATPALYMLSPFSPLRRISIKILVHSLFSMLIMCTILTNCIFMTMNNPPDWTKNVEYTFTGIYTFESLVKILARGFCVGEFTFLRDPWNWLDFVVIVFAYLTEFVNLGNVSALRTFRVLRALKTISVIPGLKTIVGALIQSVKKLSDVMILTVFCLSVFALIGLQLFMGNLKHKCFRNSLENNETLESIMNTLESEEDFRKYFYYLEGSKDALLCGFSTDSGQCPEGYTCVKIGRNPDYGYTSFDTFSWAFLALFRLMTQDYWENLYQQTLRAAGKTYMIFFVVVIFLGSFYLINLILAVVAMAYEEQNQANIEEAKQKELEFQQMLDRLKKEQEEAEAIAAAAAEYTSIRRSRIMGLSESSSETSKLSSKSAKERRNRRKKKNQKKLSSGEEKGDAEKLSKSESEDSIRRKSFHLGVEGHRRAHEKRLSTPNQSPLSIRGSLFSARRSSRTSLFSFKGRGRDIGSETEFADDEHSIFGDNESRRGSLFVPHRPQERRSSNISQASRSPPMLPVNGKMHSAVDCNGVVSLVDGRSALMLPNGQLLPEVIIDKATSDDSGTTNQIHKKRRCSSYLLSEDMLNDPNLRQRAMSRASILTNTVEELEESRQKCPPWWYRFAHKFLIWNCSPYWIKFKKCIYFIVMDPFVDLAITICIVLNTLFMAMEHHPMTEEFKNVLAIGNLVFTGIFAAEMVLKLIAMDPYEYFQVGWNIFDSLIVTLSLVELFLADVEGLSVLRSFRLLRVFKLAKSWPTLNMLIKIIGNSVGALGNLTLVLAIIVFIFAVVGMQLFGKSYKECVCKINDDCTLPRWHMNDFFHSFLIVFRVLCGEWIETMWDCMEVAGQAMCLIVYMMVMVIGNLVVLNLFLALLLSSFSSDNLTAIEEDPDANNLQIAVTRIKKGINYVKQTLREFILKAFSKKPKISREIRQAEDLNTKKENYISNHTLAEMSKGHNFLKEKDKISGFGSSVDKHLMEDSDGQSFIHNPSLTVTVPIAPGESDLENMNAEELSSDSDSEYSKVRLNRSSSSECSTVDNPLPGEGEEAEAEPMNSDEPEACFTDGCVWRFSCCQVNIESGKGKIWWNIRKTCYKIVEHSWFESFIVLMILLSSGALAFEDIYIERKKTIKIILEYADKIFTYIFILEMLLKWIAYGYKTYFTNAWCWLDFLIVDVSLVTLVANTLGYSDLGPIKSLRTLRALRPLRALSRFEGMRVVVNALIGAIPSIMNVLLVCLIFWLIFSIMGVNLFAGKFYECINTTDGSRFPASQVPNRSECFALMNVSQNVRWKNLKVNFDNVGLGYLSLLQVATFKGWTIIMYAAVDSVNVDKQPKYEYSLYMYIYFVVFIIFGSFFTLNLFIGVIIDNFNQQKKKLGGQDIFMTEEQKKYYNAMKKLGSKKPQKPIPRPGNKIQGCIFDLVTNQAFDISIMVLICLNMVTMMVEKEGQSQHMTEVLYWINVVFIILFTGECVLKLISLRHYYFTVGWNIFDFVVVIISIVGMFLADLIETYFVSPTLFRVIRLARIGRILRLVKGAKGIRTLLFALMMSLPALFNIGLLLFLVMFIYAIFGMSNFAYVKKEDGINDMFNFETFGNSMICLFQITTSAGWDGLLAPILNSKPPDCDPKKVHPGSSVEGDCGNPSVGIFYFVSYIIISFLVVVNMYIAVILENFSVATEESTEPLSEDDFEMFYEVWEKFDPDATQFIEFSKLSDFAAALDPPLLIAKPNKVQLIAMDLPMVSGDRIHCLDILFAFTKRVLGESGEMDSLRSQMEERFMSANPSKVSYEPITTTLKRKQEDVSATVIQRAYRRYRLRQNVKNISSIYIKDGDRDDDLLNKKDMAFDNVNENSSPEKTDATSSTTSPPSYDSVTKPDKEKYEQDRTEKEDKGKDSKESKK
Data set [2] deals with T1, Sodium channel protein type 9 subunit alpha. As to the kind of experiment: Inhibition of human Nav1.7 by patch clamp electrophysiology. In general terms: The patch-clamp technique gives a direct electrical read-out from membranes.
Target sequence in this assay (Q15858 whole entry): as above
Data set [3] concerns the target Sodium channel protein type 5 subunit alpha (Homo sapiens, UniProt Q14524). Put plainly: Inhibition of human Nav1.5 by patch clamp electrophysiology.
For data set [4], the target named is T1, Sodium channel protein type 9 subunit alpha. As to the kind of experiment: Inhibition of human Nav1.7 by sodium flux assay.
Target sequence in this assay (Q15858 whole entry): as above
For data set [5] the target is unchanged. As to the kind of experiment: Inhibition of human Nav1.7 assessed as fold shift in IC50 in presence of BSA by sodium flux assay.
Target sequence in this assay (Q15858 whole entry, looked up): as the sequence (Q15858 whole entry) above
Data set [6] is described as follows: Metabolic stability in human liver microsomes assessed as hepatic clearance. The format is ADME, Microsome. For orientation: Liver microsomes are a subcellular fraction often used to study metabolism.
The nature of data set [7]: Metabolic stability in mouse liver microsomes assessed as hepatic clearance. The data set is classed as ADME, Microsome.
A short description of data set [8]: AUC in mouse at 3 mg/kg, po. The format is ADME, organism-based. Conditions: in vivo, read-out: AUC.

Chain of Sodium channel protein type 5 subunit alpha (Q14524 whole entry): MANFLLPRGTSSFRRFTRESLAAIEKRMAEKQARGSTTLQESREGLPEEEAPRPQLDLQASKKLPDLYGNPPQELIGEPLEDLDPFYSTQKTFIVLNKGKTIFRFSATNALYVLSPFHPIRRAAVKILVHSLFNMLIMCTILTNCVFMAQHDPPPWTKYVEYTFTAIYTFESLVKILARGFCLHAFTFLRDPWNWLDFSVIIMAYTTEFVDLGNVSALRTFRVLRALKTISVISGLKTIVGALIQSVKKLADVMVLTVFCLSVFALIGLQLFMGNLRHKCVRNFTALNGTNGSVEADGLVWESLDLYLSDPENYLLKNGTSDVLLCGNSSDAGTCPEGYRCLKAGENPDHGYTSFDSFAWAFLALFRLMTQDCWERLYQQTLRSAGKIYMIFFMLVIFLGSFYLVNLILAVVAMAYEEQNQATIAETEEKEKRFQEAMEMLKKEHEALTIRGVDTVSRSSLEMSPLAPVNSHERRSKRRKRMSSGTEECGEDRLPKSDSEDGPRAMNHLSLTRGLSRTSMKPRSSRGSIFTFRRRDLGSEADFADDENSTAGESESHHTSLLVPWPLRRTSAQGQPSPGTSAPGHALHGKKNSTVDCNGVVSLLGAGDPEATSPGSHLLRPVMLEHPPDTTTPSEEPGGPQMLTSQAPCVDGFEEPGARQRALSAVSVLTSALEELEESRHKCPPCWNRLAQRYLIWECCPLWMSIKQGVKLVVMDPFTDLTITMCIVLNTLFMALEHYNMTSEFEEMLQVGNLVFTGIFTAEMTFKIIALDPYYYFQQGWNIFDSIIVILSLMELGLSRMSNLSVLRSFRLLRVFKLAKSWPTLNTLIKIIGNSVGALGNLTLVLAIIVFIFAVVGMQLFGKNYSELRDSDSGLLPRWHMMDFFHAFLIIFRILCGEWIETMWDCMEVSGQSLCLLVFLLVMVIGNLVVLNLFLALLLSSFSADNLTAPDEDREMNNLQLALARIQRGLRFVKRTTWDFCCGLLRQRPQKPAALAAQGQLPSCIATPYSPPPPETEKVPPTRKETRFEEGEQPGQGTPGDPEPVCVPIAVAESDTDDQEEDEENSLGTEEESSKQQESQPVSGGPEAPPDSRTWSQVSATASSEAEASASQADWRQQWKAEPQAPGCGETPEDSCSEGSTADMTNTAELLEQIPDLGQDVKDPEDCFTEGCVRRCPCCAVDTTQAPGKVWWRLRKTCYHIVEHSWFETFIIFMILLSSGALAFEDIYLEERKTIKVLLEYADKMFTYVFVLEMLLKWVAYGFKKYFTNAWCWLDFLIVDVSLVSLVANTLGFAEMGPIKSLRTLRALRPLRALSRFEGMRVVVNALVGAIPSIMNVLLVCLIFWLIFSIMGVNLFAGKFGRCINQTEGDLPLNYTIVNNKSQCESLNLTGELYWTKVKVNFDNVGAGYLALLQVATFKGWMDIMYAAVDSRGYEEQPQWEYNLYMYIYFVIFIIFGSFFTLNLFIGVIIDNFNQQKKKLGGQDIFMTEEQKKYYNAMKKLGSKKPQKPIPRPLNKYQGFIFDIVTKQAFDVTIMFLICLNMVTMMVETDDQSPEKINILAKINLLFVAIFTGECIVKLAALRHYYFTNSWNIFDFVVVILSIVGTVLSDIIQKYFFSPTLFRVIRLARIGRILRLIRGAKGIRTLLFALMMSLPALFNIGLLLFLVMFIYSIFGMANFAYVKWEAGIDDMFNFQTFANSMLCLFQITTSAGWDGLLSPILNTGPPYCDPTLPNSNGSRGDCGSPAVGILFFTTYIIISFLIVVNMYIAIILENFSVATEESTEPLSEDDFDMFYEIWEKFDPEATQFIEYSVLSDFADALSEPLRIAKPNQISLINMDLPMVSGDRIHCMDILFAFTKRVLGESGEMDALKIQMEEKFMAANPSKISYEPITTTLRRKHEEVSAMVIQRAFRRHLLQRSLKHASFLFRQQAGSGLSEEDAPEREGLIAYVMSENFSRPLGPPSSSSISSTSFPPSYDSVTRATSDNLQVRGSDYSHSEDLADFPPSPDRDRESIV

`O=C(O)[C@@H]1C2CC(C2)N1C(=O)c1cc(C2CC2)c(OCC23CC4CC(CC(C4)C2)C3)cc1F`: the Ki in data set [1] was 190 nM.

Regarding `O=C(O)[C@@H]1C[C@H](O)CN1C(=O)c1cc(C2CC2)c(OCC23CC4CC(CC(C4)C2)C3)cc1F`, the Ki in data set [1] amounted to 150 nM.

In data set [1], `O=C(O)[C@@H]1[C@@H](O)CCN1C(=O)c1cc(C2CC2)c(OCC23CC4CC(CC(C4)C2)C3)cc1F` showed an inhibition constant Ki of 600 nM.

The compound `C[C@H]1CCN(C(=O)c2cc(C3CC3)c(OCC34CC5CC(CC(C5)C3)C4)cc2F)[C@@H]1C(=O)O` had a Ki in data set [1] of 10 nM.

`C[C@H]1C[C@@H](C(=O)O)N(C(=O)c2cc(C3CC3)c(OCC34CC5CC(CC(C5)C3)C4)cc2F)C1` yielded a Ki in data set [1] of 49 nM.

For `C[C@H]1[C@H](O)CN(C(=O)c2cc(C3CC3)c(OCC34CC5CC(CC(C5)C3)C4)cc2F)[C@@H]1C(=O)O`, the Ki in data set [1] is 21 nM.

Turning to `C[C@@H]1[C@@H](C(=O)O)[C@H](C(=O)c2cc(C3CC3)c(OCC34CC5CC(CC(C5)C3)C4)cc2F)C[C@@H]1F`, the inhibition constant Ki in data set [1] amounted to 1.8 nM. Further, the IC50 in data set [2] stood at 10 nM; in data set [3] it was 6 µM; in data set [4] it was 160 nM. Moreover, in data set [5], the fold change (FC) came to 1. The results for the CLhep predicted in data set [6] and in data set [7] were 11 mL/min/kg and 53 mL/min/kg, respectively. In addition, in data set [8], the AUC came to 0.24 µM·h.

Turning to `C[C@@H]1[C@@H](C(=O)O)N(C(=O)c2cc(C3CC3)c(OCC34CC5CC(CC(C5)C3)C4)cc2F)C[C@@H]1F`, the Ki in data set [1] is 6.4 nM. The IC50 was 10 nM in data set [2] and 5.8 µM in data set [3]. Moreover, the fold change (FC) in data set [5] worked out at 1. The CLhep predicted was 13 mL/min/kg in data set [6] and 64 mL/min/kg in data set [7]. The area under the curve (AUC) in data set [8] came to 0.16 µM·h.

For the compound `O=C(O)[C@@H]1CC(F)(F)CN1C(=O)c1cc(C2CC2)c(OCC23CC4CC(CC(C4)C2)C3)cc1F`, affinity in data set [1] was put at a Ki of 35 nM.

`O=C(O)[C@@H]1C[C@H](F)CN1C(=O)c1cc(C2CC2)c(OCC23CC4CC(CC(C4)C2)C3)cc1F` showed a Ki in data set [1] of 560 nM.

In the case of `C[C@@H]1C[C@@H](C(=O)O)N(C(=O)c2cc(C3CC3)c(OCC34CC5CC(CC(C5)C3)C4)cc2F)C1`, the affinity in data set [1] corresponds to a Ki of 85 nM.

In turn, `O=C(O)[C@@H]1[C@@H](F)CCN1C(=O)c1cc(C2CC2)c(OCC23CC4CC(CC(C4)C2)C3)cc1F` returned an inhibitory constant (Ki) in data set [1] of 60 nM.
